Data as given in BindingDB's records for doi:10.1021/jm0301787 (Roche Palo Alto, 2003).

Molecular target: Mitogen-activated protein kinase 14 (Homo sapiens, UniProt Q16539)
Assay: In Vitro Kinase Assay
Settings: pH 7.4; 30 °C
Method: Inhibition of human recombinant active p38alpha MAP kinase was tested by measuring the incorporation of 33P from gamma-[33P] ATP into myelin basic protein (MBP). The assay was performed in a 96-well microtiter plate. The incorporated radioactivity was measured in a Packard Topcount microplate scintillation counter. The 50% inhibitory value was calculated by fitting the data to the equation: fractional activity = 1/[I]/IC50 + 1.

Chain of Mitogen-activated protein kinase 14 (Q16539 whole entry): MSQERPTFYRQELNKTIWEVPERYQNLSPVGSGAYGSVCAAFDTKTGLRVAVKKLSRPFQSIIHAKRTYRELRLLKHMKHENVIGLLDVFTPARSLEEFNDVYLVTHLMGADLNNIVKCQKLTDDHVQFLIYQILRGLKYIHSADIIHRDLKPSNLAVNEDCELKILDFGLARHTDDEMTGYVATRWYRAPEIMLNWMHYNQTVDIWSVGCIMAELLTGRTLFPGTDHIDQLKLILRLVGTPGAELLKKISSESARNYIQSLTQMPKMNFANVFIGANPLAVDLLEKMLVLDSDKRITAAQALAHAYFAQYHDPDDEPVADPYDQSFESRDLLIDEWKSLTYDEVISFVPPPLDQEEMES

Work on `CC(CO)Nc1cc(-c2[nH]c3cccnc3c2-c2ccc(F)cc2)ccn1` (stereo unspecified) [2-({4-[3-(4-fluorophenyl)-1H-pyrrolo[3,2-b]pyridin-2-yl]pyridin-2-yl}amino)propan-1-ol] yielded an IC50 of 3 nM.
